# Measured values from patent US12110494B2, “Method for biologically producing sugar alcohol from agar” (Korea University Research and Business Foundation, priority 2018, dated 2024).
# Key:
# [1] = biological target: T1, AR expressed by a GRE3 gene derived from S. cerevisiae (Saccharomyces cerevisiae, UniProt P38715); assay: Reduction of L-AHG and AB by AR (NADPH decrease at 340 nm); format: biochemical; settings: substrate 2 mM, 1 mM NADPH, pH 6.0 sodium phosphate buffer, 30° C., FIG. 3B
# T1 construct: A target gene GRE3 was amplified from the genomic DNA by PCR; His6 (C); made in house
# T1 sequence (P38715 1-327): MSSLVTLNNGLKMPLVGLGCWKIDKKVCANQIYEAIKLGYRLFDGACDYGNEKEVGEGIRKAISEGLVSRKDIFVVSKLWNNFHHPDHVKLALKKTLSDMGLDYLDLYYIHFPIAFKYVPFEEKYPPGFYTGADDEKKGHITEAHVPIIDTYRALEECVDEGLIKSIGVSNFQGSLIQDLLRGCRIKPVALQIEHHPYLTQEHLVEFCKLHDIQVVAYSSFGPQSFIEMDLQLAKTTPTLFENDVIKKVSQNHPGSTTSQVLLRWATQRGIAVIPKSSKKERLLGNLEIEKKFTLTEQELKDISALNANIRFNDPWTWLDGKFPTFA
# Protocol: An enzymatic reaction was performed in a pH 6.0 sodium phosphate buffer at 30° C. 1 mM NADPH was used as a cofactor, and each substrate was allowed to react at 2 mM and a protein concentration of 9.36 nmol.
# [2] = biological target: T2, β-galactosidase expressed by LAC4 (Kluyveromyces lactis, UniProt P00723); assay: AB hydrolysis by LAC4 in coenzyme obtained from lysed cells; format: biochemical, K. lactis; settings: substrate 2 g/L
# T2 construct: expressed in transfected cells; host or cells: Saccharomyces cerevisiae D452-2-L124 (crude lysate supernatant)
# Protocol: The AB hydrolysis ability of LAC4 was examined for the constructed strain D452-2-L124 and controls D452-2-L12 and parent D452-2. Since a method of verifying AB hydrolysis is to verify the enzymatic reaction in the cell, a protein, that is, a coenzyme, obtained by growth, collection, and lysis of each cell was used to measure the AB hydrolysis ability. More specifically, each strain was allowed to grow in a YP medium, which is a nutrient broth containing 20 g/L of glucose, at 30° C. and centrifuged in the mid-exponential growth phase at 3,000 g for 10 minutes to collect cells. The collected cells were released with a 20 mM Tris-HCl (pH 7.4) buffer and then lyzed using a sonicator. The lyzed cells were centrifuged at 4° C. and 10,000 g for 10 minutes. The resultant was analyzed by BCA protein concentration quantification to measure the concentration of a coenzyme.
# Enzymatic reaction conditions for AB hydrolysis by LAC4 were as follows. AB and lactose as a positive control were used as substrates in the experiment. Each substrate with a concentration of 2 g/L and a coenzyme at 0.5 g/L were reacted in a sodium acetate (pH 6.0) buffer at 30° C. […] This is due to a structural difference between AB and lactose. In this way, it is expected that AB brought into the cell by LAC12 will be hydrolyzed by LAC4.
# D452-2-L12 [3] = assay: Intracellular AB uptake by LAC12 in minimal medium; format: cell-based, S. cerevisiae; settings: minimal medium (Verduyn), without carbon source, FIG. 4A
# Protocol: To confirm the possibility that, […], AB is consumed together or AB is uptaken into the cell by producing energy from the carbon source, […], and then AB consumption experiments were performed for D452-2-L12 and parent D452-2 as a control. […]
# parent D452-2 [4] = assay: Intracellular AB uptake in minimal medium, control strain; format: cell-based, S. cerevisiae; settings: minimal medium (Verduyn), without carbon source, FIG. 4D
# Protocol: To confirm the possibility that, when a carbon source that may be consumed by a transporter is provided, AB is consumed together or AB is uptaken into the cell by producing energy from the carbon source, […], and then AB consumption experiments were performed for D452-2-L12 and parent D452-2 as a control. As a result, both when glucose (FIG. 4B) was provided and when galactose (FIG. 4C) was provided, only D452-2-L12 was able to consume AB and produced ABol. […] Therefore, D452-2-L12 was able to consume AB by LAC12.
# D452-2-L124 = assay: Cell growth inhibition according to AB concentration; format: cell-based, S. cerevisiae
# From the text: (§1) An experiment for confirming the growth inhibition effect is as follows. […] This is because an increase in AB concentration causes a glucose (carbon source) consumption rate to be decreased (FIG. 6B).
# D452-2-L12 [5] = assay: as above; format: cell-based, S. cerevisiae; settings: 20 g/L glucose
# From the text: as §1
# parent D452-2 [6] = assay: as above; format: cell-based, S. cerevisiae; settings: 20 g/L glucose
# From the text: as §1
# [7] = Thermal stability (degree of denaturation over time); format: physicochemical; settings: at 4, 25, 50, and 70° C., FIGS. 11A-11D
# Protocol: To confirm whether L-AHGol and L-ABol, which were produced by fermentation and separated by size exclusion chromatography, are actually stable against heat, L-AHG and AB were experimentally compared. The experiment was performed by measuring the degree of denaturation of each substance over time at 4, 25, 50, and 70° C.
# Streptococcus mutans = settings: reported; cited from earlier work
# [8] = AB 0, 10, 20, 50 g/L, minimal medium, 30° C., FIG. 6A
# T2 sequence (P00723 whole entry): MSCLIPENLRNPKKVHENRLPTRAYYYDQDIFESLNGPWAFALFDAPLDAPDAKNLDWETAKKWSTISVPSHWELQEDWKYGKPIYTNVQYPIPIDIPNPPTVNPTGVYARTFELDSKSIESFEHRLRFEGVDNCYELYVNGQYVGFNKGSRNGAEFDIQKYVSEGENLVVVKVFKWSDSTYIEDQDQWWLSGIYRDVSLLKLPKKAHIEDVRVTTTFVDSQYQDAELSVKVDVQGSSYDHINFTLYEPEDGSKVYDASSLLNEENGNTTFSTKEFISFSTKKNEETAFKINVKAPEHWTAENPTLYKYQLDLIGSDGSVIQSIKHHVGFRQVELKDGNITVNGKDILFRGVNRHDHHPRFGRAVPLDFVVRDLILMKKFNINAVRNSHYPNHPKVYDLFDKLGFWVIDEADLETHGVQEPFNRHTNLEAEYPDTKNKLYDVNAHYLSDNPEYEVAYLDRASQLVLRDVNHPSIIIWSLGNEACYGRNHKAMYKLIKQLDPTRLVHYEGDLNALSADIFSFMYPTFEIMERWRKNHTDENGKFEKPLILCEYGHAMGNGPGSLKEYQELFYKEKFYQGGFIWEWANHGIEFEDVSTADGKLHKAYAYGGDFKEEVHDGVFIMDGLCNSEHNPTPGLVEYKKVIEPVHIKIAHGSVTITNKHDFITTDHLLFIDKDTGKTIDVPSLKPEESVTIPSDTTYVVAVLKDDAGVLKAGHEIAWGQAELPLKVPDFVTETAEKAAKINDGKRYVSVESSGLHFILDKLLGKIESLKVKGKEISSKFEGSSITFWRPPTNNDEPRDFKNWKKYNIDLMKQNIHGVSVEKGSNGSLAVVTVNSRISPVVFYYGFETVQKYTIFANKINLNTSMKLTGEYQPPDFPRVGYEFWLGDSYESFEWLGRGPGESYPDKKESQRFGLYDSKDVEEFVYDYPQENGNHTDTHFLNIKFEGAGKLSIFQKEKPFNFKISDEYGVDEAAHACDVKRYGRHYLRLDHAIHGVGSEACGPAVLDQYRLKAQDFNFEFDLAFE
smiles,measurement,setting,value
"OC[C@H]1O[C@@H](O[C@H]2[C@H]3OC[C@@H]2OC(O)[C@H]3O)[C@H](O)[C@@H](O)[C@H]1O (mixture of isomers) [AB, agarobiose]",reactivity with AR,[1],converted into ABol by AR
same,AB hydrolysis,"[2]; coenzyme from D452-2-L124 0.5 g/L, sodium acetate pH 6.0, 30° C., FIG. 5",best hydrolyzed
same,AB hydrolysis,"[2]; coenzymes from strains not expressing LAC4 (D452-2-L12 and parent D452-2), pH 6.0, 30° C.",hardly hydrolyzed
same,reactivity to β-galactosidase compared with lactose,"[2]; coenzyme 0.5 g/L, pH 6.0, 30° C.",less reactive
same,AB consumption from medium,D452-2-L12 [3],intracellularly consumed AB
same,AB consumption from medium,parent D452-2 [4],did not decrease
same,specific growth rate as AB concentration increased,"D452-2-L124; AB 0, 10, 20, 50 g/L, 20 g/L glucose, minimal medium, 30° C., FIG. 6A",most sharply decreased
same,growth,"D452-2-L124; AB concentration 50 g/L, 20 g/L glucose",did not grow
same,glucose (carbon source) consumption rate on increase in AB concentration,"D452-2-L124; each strain showed a tendency similar to the specific growth rate, FIG. 6B",decreased
same,specific growth rate as AB concentration increased,D452-2-L12 [5]; [8],decreased as the AB concentration increased
same,growth,D452-2-L12 [5]; AB concentration 50 g/L,did not grow
same,specific growth rate as AB concentration increased,parent D452-2 [6]; [8],not affected until the AB concentration was 20 g/L
same,growth,parent D452-2 [6]; AB concentration 50 g/L,slowly grew afterward
same,"thermal stability, degree of denaturation over time",[7],denatured over time at 50 °C or more
"O=C[C@@H](O)[C@@H]1OC[C@H](O)[C@H]1O [L-AHG, 3,6-anhydro-L-galactose]",reactivity with AR,[1],then with L-AHG
same,"thermal stability, degree of denaturation over time",[7],denatured over time at 50 °C or more
same,antibacterial effect,Streptococcus mutans,antibacterial effect
"OC[C@@H](O)[C@@H]1OC[C@H](O)[C@H]1O [L-AHGol, 3,6-anhydro-L-galactitol]","thermal stability, degree of denaturation over time",[7],very stable without being denatured even at 70 °C
O=C[C@H](O)[C@@H](O)[C@H](O)CO [xylose],reactivity with AR,[1],reacted best
"OC[C@@H](O)[C@@H]1OC[C@H](O)[C@H]1O[C@@H]1O[C@H](CO)[C@H](O)[C@H](O)[C@H]1O [ABol, agarobititol]","thermal stability, degree of denaturation over time",[7],very stable without being denatured even at 70 °C
